# Patent publication US20250144067A1, “PERSONALIZED STARVATION THERAPY FOR CANCER” (Faeth Therapeutics, Inc., priority 2021, published 2025)
# Like-named read-outs stand apart in the source and are kept apart here.
# Key:
# [1] = tested on: NCI-H292 lung cancer cells; experiment: FDA drug screening, complete media vs cholesterol-free media with simvastatin (TABLE 2); type: cell-based, human
# [2] = tested on: NCI-H292 lung cancer cells; experiment: FDA drug screening, complete media vs cholesterol-free media without statin (TABLE 1); type: cell-based, human
# [3] = NCI-H292 cells, drug in cholesterol-free media with simvastatin 0.04 μM
# [4] = NCI-H292 cells, drug in complete media
# [5] = complete media vs cholesterol-free media + simvastatin (0.04 μM), >0 enhanced anti-cancer activity, about 0 neutral, <0 antagonist
# [6] = Complete minus Cholesterol-free, >0 enhanced anti-cancer activity, about 0 neutral, <0 antagonist
# [7] = NCI-H292 cells, cholesterol-free media without statin, FDA drug library screen
# [8] = NCI-H292 cells, complete media, FDA drug library screen
# [9] = NCI-H292 cells, complete media, FDA drug library screen (TABLE 2)
# [10] = complete media minus cholesterol-free media + simvastatin (0.04 μM), […]
# [11] = Complete minus Cholesterol-free, […]
# [12] = NCI-H292 cells, FDA drug library screen, cholesterol-free media with simvastatin 0.04 μM
# [13] = NCI-H292 cells, FDA drug library screen, complete media
# [14] = complete media minus cholesterol-free media + simvastatin, […]
# [15] = NCI-H292 cells, cholesterol-free media without statin
# [16] = complete media minus cholesterol-free media + simvastatin, >0 enhanced anti-cancer activity, about 0 neutral, <0 antagonist
# [17] = NCI-H292 cells, cholesterol-free media with simvastatin 0.04 μM, cell growth value in FDA drug screen
# [18] = NCI-H292 cells, complete media, cell growth value in FDA drug screen
# [19] = NCI-H292 cells, FDA library drug in cholesterol-free media with simvastatin 0.04 μM
# [20] = NCI-H292 cells, FDA library drug in complete media
# [21] = complete media vs cholesterol-free media + simvastatin (0.04 μM), […]
# [22] = complete vs cholesterol-free media, […]
# [23] = NCI-H292 cells in complete media
# [24] = NCI-H292 cells, cholesterol-free media with simvastatin 0.04 μM, FDA drug library screen (TABLE 2)
# [25] = Complete minus Cholesterol-free, greater than 0 enhanced anti-cancer activity, about 0 neutral, below 0 antagonists
substance,measurement,setting,value
Gadobutrol,Cholesterol-free media + simvastatin (0.04 μM),[1]; [3],1.273
same,Complete Media,[1]; [4],1.022
same,Difference,[1]; [5],−0.25
same,Difference,[2]; [6],0.01
same,Cholesterol-free,[2]; [7],0.939
same,Complete,[2]; [8],0.9511
Gadopentetate (dimeglumine),Complete Media,[1]; [9],1.1
same,Difference,[1]; [10],−0.05
same,Difference,[2]; [11],−0.06
same,Cholesterol-free,[2]; [7],1.132
Gadoxetate (Disodium),Cholesterol-free media + simvastatin (0.04 μM),[1]; [12],1.553
same,Complete Media,[1]; [13],1.778
same,Difference,[1]; [14],0.22
same,Difference,[2]; [11],−0.26
same,Cholesterol-free,[2]; [15],1.164
same,Complete,"[2]; NCI-H292 cells, complete media",0.9023
Garenoxacin (Mesylate hydrate),Cholesterol-free media + simvastatin (0.04 μM),[1]; [3],1.436
same,Complete Media,[1]; [4],1.268
same,Difference,[1]; [5],−0.17
same,Cholesterol-free,[2]; [15],1.769
same,Complete,"[2]; NCI-H292 cells, complete media",1.3
same,Difference,"[2]; complete vs cholesterol-free media, greater than 0 enhanced anti-cancer activity, about 0 neutral, below 0 antagonists",−0.47
Gemifloxacin (mesylate),Cholesterol-free media + simvastatin (0.04 μM),[1]; [12],0.9496
same,Complete Media,[1]; [13],1.098
same,Difference,[1]; [16],0.15
same,Difference,[2]; [6],−0.22
same,Cholesterol-free,[2]; [15],1.118
same,Complete,"[2]; NCI-H292 cells, complete media",0.9009
Gentamicin (sulfate),Cholesterol-free media + simvastatin (0.04 μM),[1]; [17],0.8679
same,Complete Media,[1]; [18],0.9575
same,Difference,[1]; [16],0.09
same,Difference,[2]; [6],0.07
same,Cholesterol-free,[2]; [7],0.9104
same,Complete,[2]; [8],0.9799
Gilteritinib hemifumarate,Cholesterol-free media + simvastatin (0.04 μM),[1]; [19],0.9393
same,Complete Media,[1]; [20],0.4057
same,Difference,[1]; [21],−0.53
same,Cholesterol-free,[2]; [7],0.3721
same,Complete,[2]; [8],0.7198
same,Difference,[2]; [22],0.35
Gluconate (Calcium),Cholesterol-free media + simvastatin (0.04 μM),[1]; [19],1.134
same,Complete Media,[1]; [20],0.8004
same,Difference,[1]; [21],−0.33
same,Difference,[2]; [11],−0.74
same,Complete,[2]; [23],0.8786
Goserelin (acetate),Cholesterol-free media + simvastatin (0.04 μM),[1]; [3],1.497
same,Complete Media,[1]; [4],1.249
same,Difference,[1]; [21],−0.25
same,Difference,[2]; [11],−0.26
same,Cholesterol-free,[2]; [15],1.173
same,Complete,"[2]; NCI-H292 cells, complete media",0.9084
Gramicidin,Cholesterol-free media + simvastatin (0.04 μM),[1]; [24],0.2157
same,Complete Media,[1]; [9],0.2144
same,Difference,[1]; [10],0.00
same,Difference,[2]; [11],−0.14
same,Cholesterol-free,"[2]; NCI-H292 cells, FDA drug library screen, cholesterol-free media without statin",0.1906
same,Complete,[2]; [13],0.04898
Guanabenz (Acetate),Cholesterol-free media + simvastatin (0.04 μM),[1],1.185
same,Complete Media,[1],0.9697
same,Difference,[1],−0.22
same,Cholesterol-free,[2],0.8753
same,Complete,[2],0.6073
same,Difference,[2],−0.27
Guanethidine (sulfate),Cholesterol-free media + simvastatin (0.04 μM),[1],1.914
same,Complete Media,[1],1.674
same,Difference,[1],−0.24
same,Cholesterol-free,[2],1.619
same,Complete,[2],1.336
same,Difference,[2],−0.28
Hemin,Cholesterol-free media + simvastatin (0.04 μM),[1]; [24],1.178
same,Complete Media,[1]; [9],1.151
same,Difference,[1]; [10],−0.03
same,Difference,[2]; [11],−0.04
same,Cholesterol-free,[2]; [7],0.9968
same,Complete,[2]; [8],0.96
Heparin (Lithium salt),Complete Media,"[1]; NCI-H292 cells, complete media, […]",1.136
same,Difference,[1]; [14],0.08
same,Difference,[2]; [11],−0.22
same,Cholesterol-free,[2]; [15],1.174
same,Complete,"[2]; NCI-H292 cells, complete media",0.9566
Heparin (sodium salt) (MW 15 kDa),Complete Media,[1]; [13],1.339
same,Difference,[1]; [14],0.23
same,Difference,[2]; [11],−0.29
same,Cholesterol-free,[2]; [15],1.451
same,Complete,"[2]; NCI-H292 cells, complete media",1.156
Hyaluronidase,Cholesterol-free media + simvastatin (0.04 μM),[1]; [19],1.288
same,Complete Media,[1]; [20],1.022
same,Difference,[1]; [21],−0.27
same,Difference,[2]; [11],−0.05
same,Cholesterol-free,[2]; [7],0.9036
same,Complete,[2]; [8],0.8508
Hydrocortisone hemisuccinate,Cholesterol-free media + simvastatin (0.04 μM),[1]; [17],0.9423
same,Complete Media,[1]; [18],1.019
same,Difference,[1]; [16],0.08
same,Difference,[2]; [25],−0.57
same,Complete,[2]; [23],0.5102
Ibutilide (fumarate),Cholesterol-free media + simvastatin (0.04 μM),[1]; [24],1.045
same,Difference,"[1]; complete media minus cholesterol-free media + simvastatin (0.04 μM), >0 enhanced anti-cancer activity, about 0 neutral, <0 antagonist",−0.02
same,Difference,[2]; [25],−1.13
same,Cholesterol-free,[2]; NCI-H292 cells in cholesterol-free media without statin,1.969
same,Complete,[2]; [23],0.8391
Icatibant (acetate),Cholesterol-free media + simvastatin (0.04 μM),[1]; [3],1.025
same,Complete Media,[1]; [4],0.7948
same,Difference,[1]; [21],−0.23
same,Cholesterol-free,[2]; [15],1.121
same,Complete,"[2]; NCI-H292 cells, complete media",0.7693
same,Difference,[2]; [22],−0.35
